We go through four compounds from article PMC4177392, “Modulation of Cytochrome P450 Metabolism and Transport across Intestinal Epithelial Barrier by Ginger Biophenolics” (PLoS ONE, 2014).

The structures appear in SMILES notation. Converted amounts (≈) assume the structure as drawn. Bounds are passed on as bounds.

One series addresses T1, CYP2C8 (Homo sapiens, UniProt P10632).
T1 sequence (P10632 1-490): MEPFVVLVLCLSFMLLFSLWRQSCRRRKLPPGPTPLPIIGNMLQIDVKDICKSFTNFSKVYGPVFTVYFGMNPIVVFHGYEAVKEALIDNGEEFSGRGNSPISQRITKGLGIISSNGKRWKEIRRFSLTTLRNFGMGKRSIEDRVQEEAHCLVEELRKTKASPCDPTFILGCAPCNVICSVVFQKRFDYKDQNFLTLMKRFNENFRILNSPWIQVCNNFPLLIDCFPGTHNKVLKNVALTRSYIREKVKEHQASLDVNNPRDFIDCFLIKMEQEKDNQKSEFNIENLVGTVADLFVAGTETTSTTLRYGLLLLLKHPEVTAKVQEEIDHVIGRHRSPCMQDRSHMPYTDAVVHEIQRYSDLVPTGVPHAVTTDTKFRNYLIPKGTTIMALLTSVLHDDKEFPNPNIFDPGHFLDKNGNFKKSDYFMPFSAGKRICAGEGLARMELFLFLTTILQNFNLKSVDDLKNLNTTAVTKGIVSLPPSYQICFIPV
Put plainly: CYP2C8 inhibition in human liver microsomes (substrate amodiaquine). Type of series: in vitro ADME. A general note: Liver microsomes are vesicles of endoplasmic reticulum, rich in cytochrome P450 enzymes.

Series [1] is described as follows: Caco-2 permeability assay. The note with it: human; for recovery at 120 min, 10 µM: Caco-2, pH 7.4, Mass Balance (recovery); for Papp at 120 min, 10 µM: Caco-2, pH 7.4, Papp, n = 3, mean ± SD. A general note: Passage across Caco-2 layers is used to estimate intestinal permeability.
Protocol: Caco-2 cells were seeded on tissue culture inserts at a density of 80,000 cells/insert. The cells were maintained for 21 days in culture medium to enable differentiation and formation of the monolayer. The culture medium was changed every alternate day.
Stock solutions (1 mM) of individual gingerols were prepared in DMSO, which were then spiked into the buffer to obtain a final assay concentration of 10 µM. HBSS-HEPES buffer was prepared by dissolving 9.7 g Hank's balanced salts, 0.37 g sodium bicarbonate, 3.50 g glucose and 2.38 g HEPES in Milli-Q water (1 L). The pH of the buffer was adjusted to 7.4 using either 1N hydrochloric acid or 1N sodium hydroxide.
Permeability of gingerols (10 µM) was determined in apical to basolateral (A-B) and basolateral to apical (B-A) directions. Transport studies were conducted between 21–25 days post seeding in 12-well Transwell inserts. Following pre-incubation in HBSS-HEPES buffer at 37°C, 5% CO2 for 30 min, buffer was removed and gingerols spiked buffer was added to each donor compartment (triplicate wells). Blank HBSS-HEPES buffer containing 1% DMSO was added to the receiver compartment. Samples were withdrawn from the receiver chamber at 30, 60, 90, and 120 min, and from the donor chamber at 0 and 120 min. The samples were collected in tubes containing equal volume of ACN. The withdrawn volume was replaced with buffer containing 1% DMSO. At the end of the experiment, cells were washed with ice-cold buffer and lysed with ACN to assess cell accumulation and estimate the recovery. Monolayers with transepithelial electrical resistance (TEER) above 300 Ωcm^2 were considered for the assay and after the assay TEER values were above 300 Ωcm^2 confirming the monolayer integrity during the experiment.
Samples were processed using protein precipitation method and analyzed using LC/MS/MS. A calibration curve (CC) of 5 nM to 10,000 nM range was employed to quantify the samples. […] Separation was achieved using Zorbax C18 column (50×4.6 mm, 3.5 µ, Agilent) for 8G, 10G, 6S and using Hypurity C18 column (100×4.6 mm, 5 µ, Thermo) for 6G. An injection volume of 20 µL was used for all samples and a flow rate of 0.6 mL/min (6G) and 1 mL/min (8G, 10G and 6S) was used for elution.
Cumulative amount of gingerols transported at each time point was plotted as function of time. The slope was used to calculate the rate of appearance of gingerols (dQ/dt).
Apparent permeability (Papp) was calculated using the formula [drawing 4] dQ/dt – rate of transport to receiver side
The next series has as its target T2, CYP2B6 (Homo sapiens, UniProt P20813).
T2 sequence (P20813 1-491): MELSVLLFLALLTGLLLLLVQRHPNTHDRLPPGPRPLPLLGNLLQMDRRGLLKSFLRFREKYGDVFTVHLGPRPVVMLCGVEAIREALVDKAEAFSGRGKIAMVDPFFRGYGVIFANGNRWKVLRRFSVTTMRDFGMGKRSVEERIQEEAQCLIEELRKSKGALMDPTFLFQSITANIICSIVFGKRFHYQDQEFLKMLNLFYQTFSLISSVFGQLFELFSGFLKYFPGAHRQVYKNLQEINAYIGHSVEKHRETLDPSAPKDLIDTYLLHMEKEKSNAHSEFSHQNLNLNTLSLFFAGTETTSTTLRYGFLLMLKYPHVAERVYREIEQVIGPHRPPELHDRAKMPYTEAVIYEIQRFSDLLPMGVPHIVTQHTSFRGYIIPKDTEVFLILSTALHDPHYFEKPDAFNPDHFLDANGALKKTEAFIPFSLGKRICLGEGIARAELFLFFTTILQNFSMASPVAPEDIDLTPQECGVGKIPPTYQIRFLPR
Put plainly: CYP2B6 inhibition in human liver microsomes (substrate bupropion). Type of series: in vitro ADME.

Where [2] appears, read: human liver microsomes, substrate amodiaquine, gingerols and GE.
Where [3] appears, read: human liver microsomes, substrate bupropion, gingerols and GE.

Protocol for CYP2B6: (§1) The highest concentration of GE used in the assay was 500 µg/mL equivalent. Stock solution for each CYP specific probe substrate was prepared in such a way that the final concentration is below the reported Km value.
(§2) A microsome-buffer-substrate mixture (MBS mix) was prepared for each isozyme by pre-mixing appropriate volumes of sodium phosphate buffer (pH 7.4, 50 mM), microsomes and substrate (Table S2 in File S1). 179 µL of MBS mix was transferred to 96-well reaction plate to which 1 µL of inhibitor stock solution was added to achieve the final target inhibitor concentration. The reaction plate was pre-incubated for 10 min at 37°C followed by reaction initiation by addition of 20 µL of 10 mM NADPH solution. The reaction plate was then incubated at 37°C for a predetermined time period following which it was quenched with 200 µL ACN for all CYPs and 200 µL 1% formic acid in water∶ACN (70∶30) for CYP1A2. In all cases, the final incubations after addition of substrate and inhibitor contained 0.1% DMSO (v/v), and the total organic solvent (DMSO and ACN) content was less than or equal to 1% (v/v). […] The incubations were performed in singlet for individual gingerols and in duplicate for GE along with respective positive controls.
(§3) All samples were processed using protein precipitation method and analyzed by employing positive (for all CYPs) and negative (for CYP2A6, 2C19 and 2E1) ionization mode in liquid chromatography tandem mass spectrometry (API4000, Applied Biosystems, USA). The peak area ratio of analyte to IS was used for calculations. An isocratic method comprising 5 mM ammonium formate and ACN (40∶60) with 0.05% formic acid was used for elution. For CYP2C19, a mobile phase consisting of 5 mM ammonium formate and ACN (30∶70) was used. The analytes and internal standards were retained on BDS Hypersil Phenyl (150×4.6 mm, 5 µ, Thermo, USA) column. A flow rate of 0.5 mL/min (CYP1A2), 0.6 mL/min (CYP2C19, CYP2E1), 0.7 mL/min (CYP2C9), 0.8 mL/min (CYP2A6, CYP3A), 1.0 mL/min (CYP2B6, CYP2C8, CYP2D6) was maintained using Shimadzu Prominence solvent delivery system (LC-20AD). The mobile phase was degassed using degasser (DGU-20A3), samples were loaded into autosampler (SIL-HTc) and the column temperature was maintained at 40°C by column oven (CTO-20A). Injection volumes for the samples were as follows: 5 µL (CYP1A2, CYP2D6, and CYP3A), 10 µL (CYP2B6, CYP2C8, and CYP2E1) and 20 µL (CYP2A6, CYP2C9, and CYP2C19). Data was collected and processed using Sciex Analyst 1.4.2.
(§4) The IC50 value was estimated from the percentage reduction in CYP activity at eleven inhibitor concentrations with respect to control.
Protocol for CYP2C8: as §1, §2, §3, §4

In the case of `CCCCC[C@H](O)CC(=O)CCc1ccc(O)c(OC)c1` [6G, 6-gingerol], the IC50 against CYP2C8 (IC50 CYP2C8, human liver microsomes, substrate amodiaquine, gingerols and GE) is 22.1 µM; against CYP2B6, 51 µM. Also, the efflux ratio at 120 min, 10 µM in series [1] (Caco-2, pH 7.4, Efflux Ratio) was under 2. Besides, the recovery at 120 min, 10 µM in series [1] (A→B) is under 50%; in series [1] (B→A) it was 77%. For the same compound, the Papp at 120 min, 10 µM in series [1] (A→B) and in series [1] (B→A) was over 10 ×10⁻⁶ cm/s throughout.
For `CCCCC/C=C/C(=O)CCc1ccc(O)c(OC)c1` [6S, 6-shogaol], the “IC50 CYP2C8” value against CYP2C8 (setting [2]) is 0.8 µg/mL (≈ 2.89 µM). Further, the “IC50 CYP2B6” value against CYP2B6 (setting [3]) turned out to be 1.6 µg/mL (≈ 5.79 µM).
For `CCCCCCC[C@H](O)CC(=O)CCc1ccc(O)c(OC)c1` [8G, 8-gingerol] the same measures were 0.70 µg/mL (≈ 2.17 µM) and 2.6 µg/mL (≈ 8.06 µM).
`CCCCCCCCC[C@H](O)CC(=O)CCc1ccc(O)c(OC)c1` [10G, 10-gingerol]: the “IC50 CYP2C8” value against CYP2C8 (microsomes) was 0.7 µg/mL (≈ 2 µM). For the same compound, the “IC50 CYP2B6” value against CYP2B6 (microsomes) was found to be 1.5 µg/mL (≈ 4.28 µM).

The term IC50 denotes the concentration at which inhibition is half-maximal. The term efflux ratio denotes a quotient of directional permeabilities that is used to spot active efflux. A word on the Papp: it is a coefficient for how fast a substance crosses the barrier. Low values mean poor permeation, high ones ready permeation.
